Assay results from patent US20030162662A1, “2-Phenyl-2h-pyridazine-3-ones” (priority 2000, published 2003).

Tests used:
[1] = system: BIDPI (common blackjack); test: Greenhouse herbicidal action, postemergence treatment, BIDPI; type: in vivo
Excerpt: (§1) The herbicidal action of the 2-phenylpyridazin-3-one compounds of the formula I could be shown by means of greenhouse experiments: […]
(§2) The cultivation containers used were plastic pots containing loamy sand with approximately 3.0% of humus as a substrate. The seeds of the test plants were sown separately according to species.
(§3) For the purpose of postemergence treatment, the test plants were first raised up to a growth height of 3 to 15 cm, depending on growth form, and then treated with the active compounds suspended or emulsified in water. For this, the test plants were either sown directly and raised in the same containers or they were first raised separately as seedlings and transplanted into the experimental containers a few days before the treatment. The application rate for the postemergence treatment was 31.2 or 15.6 g of a.S./ha.
(§4) The plants were kept species-specifically at temperatures from 10-25° C. or 20-35° C. The experimental period extended over 2 to 4 weeks. During this time, the plants were tended, and their reaction to the individual treatments was assessed.
(§5) Assessment was carried out on a scale from 0 to 100. 100 here means no emergence of the plants or complete destruction of at least the above-ground parts and 0 means no damage or normal course of growth.
(§6) The plants used in the greenhouse experiments were made up of the following species: […]

[2] = system: SETFA (Faber's foxtail); test: Greenhouse herbicidal action, postemergence treatment, SETFA; type: in vivo
Excerpt: as §1, §2, §3, §4, §5, §6

| melting point | SMILES | herbicidal action against BIDPI (scale 0 to 100; 100 = complete destruction, 0 = no damage) ([1]; application rate 15.6 g/ha) | herbicidal action against BIDPI (scale 0 to 100; 100 = complete destruction, 0 = no damage) ([1]; application rate 31.2 g/ha) | herbicidal action against SETFA (scale 0 to 100; 100 = complete destruction, 0 = no damage) ([2]; application rate 15.6 g/ha) | herbicidal action against SETFA (scale 0 to 100; 100 = complete destruction, 0 = no damage) ([2]; application rate 31.2 g/ha) |
| --- | --- | --- | --- | --- | --- |
| – | CCOC(=O)C=Cc1cc(-n2ncc(C(F)(F)F)c(C)c2=O)c(F)cc1Cl [Example I-658 of WO 97/07104, reference compound] | 30% | 30% | 80% | – |
| – | CCOC(=O)C(Cl)=Cc1cc(-n2ncc(C(F)(F)F)c(C)c2=O)c(F)cc1Cl [Ia.3, 2-[4-Chloro-2-fluoro-5-(2-ethoxycarbonyl-2-chloroethen-1-yl)-phenyl]-4-methyl-5-trifluoromethyl-2H-pyridazin-3-one] | 80% | 100% | 100% | 100% |
| 121 to 123 °C | COC(=O)/C(Cl)=C/c1cc(-n2ncc(C(F)(F)F)c(C)c2=O)c(F)cc1Cl [Ib.2] | – | – | – | – |
| 128 to 129 °C | Cc1c(C(F)(F)F)cnn(-c2cc(/C=C(\Cl)C(N)=O)c(Cl)cc2F)c1=O [Ib.30] | – | – | – | – |
